From US6355799B1, “Substituted benzene compounds, process for their preparation, and herbicidal and defoliant compositions containing them” (ISK Americas Incorporated, priority 1997, dated 2002)

Assays:
Assay type in all cases: in vivo
[1] = tested on: field corn (Zea mays L., var. Dekalb 535, CORN); assay: Post-emerge test, crop safety; conditions: post-emerge, 14 days after application, rating scale 0-100
Outline: (§1)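 Visual ratings on a 0-100 scale (0 no damage, 100 all plants dead) were taken at 14 days after treatment. Rates of 15-1000 g ai/ha in acetone, 187 l/ha, were sprayed onto soil one day after planting (pre-emerge) or onto 2-3 leaf plants with 0.25% v/v surfactant (post-emerge).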

[2] = tested on: upland rice (Oryza sp., var. Tebonnet, RICE); assay: Post-emerge test, crop safety; conditions: post-emerge, 14 days after application, rating scale 0-100
Outline: as §1

[3] = tested on: field corn (Zea mays L., var. Dekalb 535, CORN); assay: Pre-emerge test, crop safety; conditions: pre-emerge, 14 days after application, scale 0-100
Outline: (§2)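 Compounds in acetone were track-sprayed at 15-1000 g ai/ha (187 l/ha) on sandy loam pots: pre-emerge one day after seeding, post-emerge at 2-3 leaf stage with 0.25% v/v non-ionic surfactant. Phytotoxicity was rated 14 days later on a 0 (no damage) to 100 (complete death) scale.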

[4] = tested on: upland rice (Oryza sp., var. Tebonnet, RICE); assay: Pre-emerge test, crop safety; conditions: pre-emerge, 14 days after application, scale 0-100
Outline: as §2

[5] = tested on: redroot pigweed (Amaranthus retroflexus, AMARE); assay: Pre-emerge test, greenhouse herbicide activity screening; conditions: pre-emerge, 14 days after application, scale 0-100
Outline: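 Sandy loam pots; pre-emerge: sown 1 d pre-spray, surface-watered after, then bottom-watered. Post-emerge: sown 8–21 d before, 2–3 leaf stage, + 0.25% v/v NIS, bottom-watered. Acetone, 187 l/ha track spray, 15–1000 g ai/ha. 0–100 injury score, day 14.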

[6] = tested on: large crabgrass (Digitaria sanguinalis, DIGSA); assay: Post-emerge test, greenhouse herbicide activity screening; conditions: post-emerge, 14 days after application, rating scale 0-100
Outline: (§3)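 Fourteen days after spraying, crop and weed injury was graded visually from 0, no effect, to 100, every plant dead. Test substances were dissolved in acetone and applied at 15–1000 g ai/ha with a flat-fan nozzle. Application was either pre-emergence, one day after sowing, or post-emergence at the 2–3 leaf stage.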

[7] = tested on: sicklepod (Cassia obtusifolia, CASOB); assay: as above; conditions: post-emerge, 14 days after application, rating scale 0-100
Outline: as §3

[8] = tested on: common ragweed (Ambrosia artemisizfolia L., AMBEL); assay: as above; conditions: post-emerge, 14 days after application, rating scale 0-100
Outline: as §3

[9] = tested on: green foxtail (Setaria viridis, SETVI); assay: as above; conditions: post-emerge, 14 days after application, rating scale 0-100
Outline: as §3

[10] = tested on: barnyardgrass (Echinochloa crus-galli, ECHCG); assay: as above; conditions: post-emerge, 14 days after application, rating scale 0-100
Outline: as §3

[11] = tested on: ivyleaf morningglory (Ipomoea hederacea, IPOHE); assay: as above; conditions: post-emerge, 14 days after application, rating scale 0-100
Outline: as §3

[12] = tested on: velvetleaf (Abutilon theophrasti, ABUTH); assay: as above; conditions: post-emerge, 14 days after application, rating scale 0-100
Outline: as §3

[13] = tested on: lambsquarters (Chenopodium album, CHEAL); assay: as above; conditions: post-emerge, 14 days after application, rating scale 0-100
Outline: as §3

[14] = tested on: johnsongrass (Sorghum halepense, SORHA); assay: as above; conditions: post-emerge, 14 days after application, rating scale 0-100
Outline: as §3

[15] = tested on: redroot pigweed (Amaranthus retroflexus, AMARE); assay: as above; conditions: post-emerge, 14 days after application, rating scale 0-100
Outline: as §3

[16] = tested on: large crabgrass (Digitaria sanguinalis, DIGSA); assay: Pre-emerge test, greenhouse herbicide activity screening; conditions: pre-emerge, 14 days after application, scale 0-100
Outline: as §1

[17] = tested on: sicklepod (Cassia obtusifolia, CASOB); assay: as above; conditions: pre-emerge, 14 days after application, scale 0-100
Outline: as §1

[18] = tested on: green foxtail (Setaria viridis, SETVI); assay: as above; conditions: pre-emerge, 14 days after application, scale 0-100
Outline: as §1

[19] = tested on: barnyardgrass (Echinochloa crus-galli, ECHCG); assay: as above; conditions: pre-emerge, 14 days after application, scale 0-100
Outline: as §1

[20] = tested on: ivyleaf morningglory (Ipomoea hederacea, IPOHE); assay: as above; conditions: pre-emerge, 14 days after application, scale 0-100
Outline: as §1

[21] = tested on: velvetleaf (Abutilon theophrasti, ABUTH); assay: as above; conditions: pre-emerge, 14 days after application, scale 0-100
Outline: as §1

[22] = tested on: lambsquarters (Chenopodium album, CHEAL); assay: as above; conditions: pre-emerge, 14 days after application, scale 0-100
Outline: as §1

[23] = tested on: johnsongrass (Sorghum halepense, SORHA); assay: as above; conditions: pre-emerge, 14 days after application, scale 0-100
Outline: as §1

Compound: CCSCC(=O)Nc1c(OC)c(Cl)cc(F)c1-n1c(=O)cc(C(F)(F)F)n(C)c1=O [2-172]
- CORN phytotoxicity rating (crop damage) ([1]; 63 g ai/ha): 5
- CORN phytotoxicity rating (crop damage) ([1]; 250 g ai/ha): 10
- RICE phytotoxicity rating (crop damage) ([2]; 63 g ai/ha): 0
- RICE phytotoxicity rating (crop damage) ([2]; 250 g ai/ha): 10
- phytotoxicity rating CORN (crop damage) ([3]; 63 g ai/ha): 0
- phytotoxicity rating CORN (crop damage) ([3]; 250 g ai/ha): 10
- phytotoxicity rating RICE (crop damage) ([4]; 63 g ai/ha): 10
- phytotoxicity rating RICE (crop damage) ([4]; 250 g ai/ha): 50
- phytotoxicity rating AMARE ([5]; 63 g ai/ha): 70
- phytotoxicity rating AMARE ([5]; 250 g ai/ha): 100
- DIGSA phytotoxicity rating ([6]; 63 g ai/ha): 0
- DIGSA phytotoxicity rating ([6]; 250 g ai/ha): 0
- CASOB phytotoxicity rating ([7]; 63 g ai/ha): 50
- CASOB phytotoxicity rating ([7]; 250 g ai/ha): 90
- AMBEL phytotoxicity rating ([8]; 63 g ai/ha): 30
- AMBEL phytotoxicity rating ([8]; 250 g ai/ha): 80
- SETVI phytotoxicity rating ([9]; 63 g ai/ha): 0
- SETVI phytotoxicity rating ([9]; 250 g ai/ha): 10
- ECHCG phytotoxicity rating ([10]; 63 g ai/ha): 0
- ECHCG phytotoxicity rating ([10]; 250 g ai/ha): 0
- IPOHE phytotoxicity rating ([11]; 63 g ai/ha): 90
- IPOHE phytotoxicity rating ([11]; 250 g ai/ha): 100
- ABUTH phytotoxicity rating ([12]; 63 g ai/ha): 60
- ABUTH phytotoxicity rating ([12]; 250 g ai/ha): 100
- CHEAL phytotoxicity rating ([13]; 63 g ai/ha): 35
- CHEAL phytotoxicity rating ([13]; 250 g ai/ha): 60
- SORHA phytotoxicity rating ([14]; 63 g ai/ha): 0
- SORHA phytotoxicity rating ([14]; 250 g ai/ha): 0
- AMARE phytotoxicity rating ([15]; 63 g ai/ha): 60
- AMARE phytotoxicity rating ([15]; 250 g ai/ha): 60
- phytotoxicity rating DIGSA ([16]; 63 g ai/ha): 20
- phytotoxicity rating DIGSA ([16]; 250 g ai/ha): 100
- phytotoxicity rating CASOB ([17]; 63 g ai/ha): 20
- phytotoxicity rating CASOB ([17]; 250 g ai/ha): 80
- phytotoxicity rating SETVI ([18]; 63 g ai/ha): 20
- phytotoxicity rating SETVI ([18]; 250 g ai/ha): 65
- phytotoxicity rating ECHCG ([19]; 63 g ai/ha): 0
- phytotoxicity rating ECHCG ([19]; 250 g ai/ha): 60
- phytotoxicity rating IPOHE ([20]; 63 g ai/ha): 60
- phytotoxicity rating IPOHE ([20]; 250 g ai/ha): 95
- phytotoxicity rating ABUTH ([21]; 63 g ai/ha): 90
- phytotoxicity rating ABUTH ([21]; 250 g ai/ha): 100
- phytotoxicity rating CHEAL ([22]; 63 g ai/ha): 30
- phytotoxicity rating CHEAL ([22]; 250 g ai/ha): 100
- phytotoxicity rating SORHA ([23]; 63 g ai/ha): 0
- phytotoxicity rating SORHA ([23]; 250 g ai/ha): 40
